Experiments:
Assay type in all cases: cell-based
[1] = target: T1, human PPARα (166–467aa) ligand binding domain (Homo sapiens, UniProt Q07869); assay: PPAR transfection (Gal4-LBD luciferase reporter) assay, hPPARα; settings: transfected COS-7 cells, 16 hours, luciferase activity; read-out: hPPAR; EC50 α (agonist activity)
T1 construct: human PPARα (166–467aa); expressed in transfected cells; host or cells: COS-7
T1 sequence (Q07869 166-467): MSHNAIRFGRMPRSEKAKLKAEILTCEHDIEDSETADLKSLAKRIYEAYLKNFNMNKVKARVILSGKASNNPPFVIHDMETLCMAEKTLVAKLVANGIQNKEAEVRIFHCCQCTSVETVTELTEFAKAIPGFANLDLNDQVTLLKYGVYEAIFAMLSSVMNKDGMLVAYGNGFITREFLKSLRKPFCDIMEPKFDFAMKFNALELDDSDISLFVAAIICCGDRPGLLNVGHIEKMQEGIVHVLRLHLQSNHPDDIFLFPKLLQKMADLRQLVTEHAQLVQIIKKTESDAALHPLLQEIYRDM
Procedure: (§1) COS-7 cells, which is African green monkey kidney cell line, were used for all transfection assays. Cells were cultured in DMEM medium supplemented with 10% fetal bovine serum, glutamic acid, and an antibiotic under humidified 5% CO2 atmosphere.
(§2) Cells were transfected by lipofectamine reagent with a mixture containing expression plasmid, firefly luciferase reporter plasmid. And a β-galactosidase expression plasmid used as an internal control for transfection efficiency.
(§3) Transiently transfected cells were incubated with DMEM with 0.2% FCS with or without compound. And after 16 hours, luciferase activity and β-galactosidase activity of cell lysate were measured.
(§4) Each compound was dissolved in and diluted with dimethyl sulfoxide (DMSO), and the DMSO concentration of the DMEM medium (containing 0.2% serum) was adjusted to 0.1% upon treatment of cells.

[2] = target: T2, human PPARγ (182–505aa) ligand binding domain (Homo sapiens, UniProt P37231); assay: PPAR transfection (Gal4-LBD luciferase reporter) assay, hPPARγ; settings: transfected COS-7 cells, 16 hours, luciferase activity; read-out: hPPAR; EC50 γ (agonist activity)
T2 construct: γ(182–505aa); expressed in transfected cells; host or cells: COS-7
T2 sequence (P37231 182-505): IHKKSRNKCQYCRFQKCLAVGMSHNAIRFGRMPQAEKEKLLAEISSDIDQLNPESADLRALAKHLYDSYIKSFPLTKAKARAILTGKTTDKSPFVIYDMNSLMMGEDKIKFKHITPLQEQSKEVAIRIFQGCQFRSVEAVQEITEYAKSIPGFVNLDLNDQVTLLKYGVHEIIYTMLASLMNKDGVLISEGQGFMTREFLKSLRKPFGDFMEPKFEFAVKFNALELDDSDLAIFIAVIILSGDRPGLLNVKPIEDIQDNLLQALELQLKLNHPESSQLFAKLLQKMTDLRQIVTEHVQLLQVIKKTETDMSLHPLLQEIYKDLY
Procedure: as §1, §2, §3, §4

[3] = target: T3, human PPARδ (137–441aa) ligand binding domain (Homo sapiens, UniProt Q03181); assay: PPAR transfection (Gal4-LBD luciferase reporter) assay, hPPARδ; settings: transfected COS-7 cells, 16 hours, luciferase activity; read-out: hPPAR; EC50 δ (agonist activity)
T3 construct: δ (137–441aa); expressed in transfected cells; host or cells: COS-7
T3 sequence (Q03181 137-441): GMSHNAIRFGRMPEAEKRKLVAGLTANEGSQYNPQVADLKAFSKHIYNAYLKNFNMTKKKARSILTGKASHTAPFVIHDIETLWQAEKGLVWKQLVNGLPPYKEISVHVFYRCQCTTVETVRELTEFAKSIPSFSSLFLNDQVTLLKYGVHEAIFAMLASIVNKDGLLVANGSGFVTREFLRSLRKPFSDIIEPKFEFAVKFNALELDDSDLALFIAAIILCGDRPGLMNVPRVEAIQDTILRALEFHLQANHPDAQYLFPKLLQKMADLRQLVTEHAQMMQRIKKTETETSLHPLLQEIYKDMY
Procedure: as §1, §2, §3, §4

SMILES	EC50 [1]	EC50 [2]	EC50 [3]
COc1ccc(OCCCN(Cc2cccc(OC(C)(C)C(=O)O)c2)c2nc3ccccc3o2)cc1 [Example 15, 2-[3-[[N-(Benzoxazol-2-yl)-N-3-(4-methoxyphenoxy)propyl]aminomethyl]phenoxy]-2-methylpropionic acid]	50 nM	> 100000 nM	1500 nM
CC(Oc1cccc(CN(CCOc2ccccc2)c2nc3ccccc3o2)c1)C(=O)O (stereo not drawn) [Example 18, 2-[3-[[N-(Benzoxazol-2-yl)-N-2-phenoxyethyl]aminomethyl]phenoxy]propionic acid]	70 nM	1200 nM	> 100000 nM
CC(Oc1cccc(CN(CCCOc2cccc(N(C)C)c2)c2nc3ccccc3o2)c1)C(=O)O (stereo not drawn) [Example 19, 2-[3-[[N-(Benzoxazol-2-yl)-N-3-(3-dimethylaminophenoxy)propyl]aminomethyl]phenoxy]propionic acid]	0.1 nM	1200 nM	> 100000 nM
COc1ccc(OCCCN(Cc2cccc(OC(C)C(=O)O)c2)c2nc3ccccc3o2)cc1 (stereo not drawn) [Example 20, 2-[3-[[N-(Benzoxazol-2-yl)-N-3-(4-methoxyphenoxy)propyl]aminomethyl]phenoxy]propionic acid]	10 nM	1200 nM	2000 nM
CCC(Oc1cccc(CN(CCOc2ccccc2)c2nc3ccccc3o2)c1)C(=O)O (stereo not drawn) [Example 24, 2-[3-[[N-(Benzoxazol-2-yl)-N-2-phenoxyethyl]aminomethyl]phenoxy]butyric acid]	30 nM	1400 nM	2300 nM
CC(Oc1cccc(CCN(CCOc2ccccc2)c2nc3ccccc3o2)c1)C(=O)O (stereo not drawn) [Example 31, 2-[3-[2-[N-(Benzoxazol-2-yl)-N-2-phenoxyethyl]aminoethyl]phenoxy]propionic acid]	90 nM	> 100000 nM	> 50000 nM
CC(Oc1cccc(CCN(CCOc2ccc(F)cc2)c2nc3ccccc3o2)c1)C(=O)O (stereo not drawn) [Example 34, 2-[3-[2-[N-(Benzoxazol-2-yl)-N-2-(4-fluorophenoxy)ethyl]aminoethyl]phenoxy]propionic acid]	60 nM	1200 nM	1600 nM
CC(Oc1cccc(CCN(CCOc2ccc(F)cc2)c2nc3cc(F)ccc3o2)c1)C(=O)O (stereo not drawn) [Example 35, 2-[3-[2-[N-(5-Fluorobenzoxazol-2-yl)-N-2-(4-fluorophenoxy)ethyl]aminoethyl]phenoxy]propionic acid]	20 nM	1200 nM	1600 nM
CC(Oc1cccc(CCN(CCOc2ccc(F)cc2)c2nc3cc(Cl)ccc3o2)c1)C(=O)O (stereo not drawn) [Example 36, 2-[3-[2-[N-(5-Chlorobenzoxazol-2-yl)-N-2-(4-fluorophenoxy)ethyl]aminoethyl]phenoxy]propionic acid]	50 nM	2100 nM	1600 nM
COc1ccc2oc(N(CCOc3ccc(F)cc3)CCc3cccc(OC(C)C(=O)O)c3)nc2c1 (stereo not drawn) [Example 37, 2-[3-[2-[N-2-(4-Fluorphenoxy)ethyl-N-(5-methoxybenzoxazol-2-yl)]aminoethyl]phenoxy]propionic acid]	70 nM	4200 nM	1500 nM
CCC(Oc1cccc(CCN(CCCOc2ccccc2)c2nc3ccccc3o2)c1)C(=O)O (stereo not drawn) [Example 38, 2-[3-[2-[N-(Benzoxazol-2-yl)-N-3-phenoxypropyl]aminoethyl]phenoxy]butyric acid]	50 nM	1500 nM	1400 nM
CCC(Oc1cccc(CCN(CCCOc2ccccc2)c2nc3cc(F)ccc3o2)c1)C(=O)O (stereo not drawn) [Example 39, 2-[3-[2-[N-(5-Fluorobenzoxazol-2-yl)-N-3-phenoxypropyl]aminoethyl]phenoxy]butyric acid]	80 nM	9100 nM	1600 nM
CCC(Oc1cccc(CCN(CCOc2ccccc2)c2nc3ccccc3o2)c1)C(=O)O (stereo not drawn) [Example 41, 2-[3-[2-[N-(Benzoxazol-2-yl)-N-2-phenoxyethyl]aminoethyl]phenoxy]butyric acid]	40 nM	2000 nM	> 50000 nM
CC(Oc1cccc(CCN(CCOc2ccccc2)c2nc3cc(F)ccc3o2)c1)C(=O)O (stereo not drawn) [Example 43, 2-[3-[2-[N-(5-Fluorobenzoxazol-2-yl)-N-2-phenoxyethyl]aminoethyl]phenoxy]propionic acid]	70 nM	> 100000 nM	5300 nM
COc1ccc2oc(N(CCOc3ccccc3)CCc3cccc(OC(C)C(=O)O)c3)nc2c1 (stereo not drawn) [Example 44, 2-[3-[2-[N-(5-Methoxybenzoxazol-2-yl)-N-2-phenoxyethyl]aminoethyl]phenoxy]propionic acid]	80 nM	> 100000 nM	1600 nM
CCC(Oc1cccc(CCN(CCOc2ccc(OC)cc2)c2nc3ccccc3o2)c1)C(=O)O (stereo not drawn) [Example 45, 2-[3-[2-[N-(Benzoxazol-2-yl)-N-2-(4-methoxyphenoxy)ethyl]aminoethyl]phenoxy]butyric acid]	10 nM	6300 nM	1800 nM
CCC(Oc1cccc(CCN(CCOc2ccc(OC)cc2)c2nc3cc(F)ccc3o2)c1)C(=O)O (stereo not drawn) [Example 46, 2-[3-[2-[N-(5-Fluorobenzoxazol-2-yl)-N-2-(4-methoxyphenoxy)ethyl]aminoethyl]phenoxy]butyric acid]	10 nM	> 100000 nM	1800 nM
CCC(Oc1cccc(CCN(CCOc2ccc(OC)cc2)c2nc3cc(Cl)ccc3o2)c1)C(=O)O (stereo not drawn) [Example 47, 2-[3-[2-[N-(5-Chlorobenzoxazol-2-yl)-N-2-(4-methoxyphenoxy)ethyl]aminoethyl]phenoxy]butyric acid]	40 nM	> 50000 nM	1500 nM
CCC(Oc1cccc(CCN(CCOc2ccc(OC)cc2)c2nc3cc(OC)ccc3o2)c1)C(=O)O (stereo not drawn) [Example 48, 2-[3-[2-[N-(5-Methoxybenzoxazol-2-yl)-N-2-(4-methoxyphenoxy)ethyl]aminoethyl]phenoxy]butyric acid]	80 nM	5200 nM	2000 nM
CCC(Oc1cccc(CCN(CCCOc2ccc(OC)cc2)c2nc3cc(F)ccc3o2)c1)C(=O)O (stereo not drawn) [Example 49, 2-[3-[2-[N-(5-Fluorobenzoxazol-2-yl)-N-3-(4-methoxyphenoxy)propyl]aminoethyl]phenoxy]butyric acid]	20 nM	1500 nM	1500 nM
CCC(Oc1cccc(CCN(CCCOc2ccc(F)cc2)c2nc3ccccc3o2)c1)C(=O)O (stereo not drawn) [Example 50, 2-[3-[2-[N-(Benzoxazol-2-yl)-N-3-(4-fluorophenoxy)propyl]aminoethyl]phenoxy]butyric acid]	40 nM	2600 nM	1400 nM
CCC(Oc1cccc(CCN(CCCOc2ccc(F)cc2)c2nc3cc(OC)ccc3o2)c1)C(=O)O (stereo not drawn) [Example 51, 2-[3-[2-[N-3-(4-Fluorophenoxy)propyl-N-(5-methoxybenzoxazol-2-yl)]aminoethyl]phenoxy]butyric acid]	30 nM	3800 nM	1400 nM
CCC(Oc1cccc(CCN(CCCOc2ccc(Cl)cc2)c2nc3cc(OC)ccc3o2)c1)C(=O)O (stereo not drawn) [Example 52, 2-[3-[2-[N-3-(4-Chlorophenoxy)propyl-N-(5-methoxybenzoxazol-2-yl)]aminoethyl]phenoxy]butyric acid]	10 nM	2000 nM	400 nM
CCC(Oc1cccc(CCN(CCCOc2ccc(Cl)cc2)c2nc3ccccc3o2)c1)C(=O)O (stereo not drawn) [Example 53, 2-[3-[2-[N-(Benzoxazol-2-yl)-N-3-(4-chlorophenoxy)propyl]aminoethyl]phenoxy]butyric acid]	60 nM	3900 nM	1900 nM

From patent publication US7183295B2, “PPAR-activating compound and pharmaceutical composition comprising the compound” (Kowa Co., Ltd., priority 2003, dated 2007)
